The results in this text go back to US20240059682A1, “THYROID HORMONE RECEPTOR BETA AGONIST COMPOUNDS” (Terns Pharmaceuticals, Inc., priority 2021, published 2024).

Like-named read-outs stand apart in the source and are kept apart here.

Data set [1] deals with THR-β/RXR-α (Homo sapiens (Human), UniProt P10828). The experiment in a line: THR/RXR heterodimer assay (THR-β/RXR-α). The class given is biochemical. Conditions: RXR heterodimer assay; for THRß-Selectivity: normalized to T3 activity.
Data set [2] in a line: Pharmacokinetics study in rats. The class given is in vivo, male Sprague-Dawley (SD) rats. Conditions: male SD rats; for AUC(0-inf) / half-life / clearance / Vd / bioavailability / AUC(0-t) / Cmax: Sprague-Dawley, rat, plasma; for clearance: mean±SD, read-out: plasma clearance (CL); for Vd: read-out: volume of distribution (Vdss). As for the experimental part: Examples 12 and 14 were administered via a 30-minute intravenous (IV) infusion at approximately 1 mg/kg and orally at approximately 3 mg/kg to male Sprague-Dawley (SD) rats. The concentrations of Examples 12 and 14 in rat plasma was determined with an LC-MS/MS method.

Data set [3] in a line: Tissue distribution in rats. Conditions: 2 hours post-dose, male SD rats; for Kp at 2 h / concentration at 2 h: Sprague-Dawley, rat. The class given is in vivo, male Sprague-Dawley (SD) rats. As for the experimental part:
Examples 12 and 14 were administered via a 30-minute intravenous (IV) infusion at approximately 2 mg/kg to jugular vein cannulated male Sprague-Dawley (SD) rats. All animals were euthanized by CO2 inhalation at 2 hours post-dose. The concentrations of Examples 12 and 14 in rat plasma and liver, heart and kidney tissues were determined with an LC-MS/MS method.

Data set [4] deals with TR beta-LBD (Homo sapiens (Human), UniProt P10828). Conditions: TR-FRET; derived from T3-selectivity normalized data.
Chain of TR beta-LBD (P10828 whole entry, looked up, the tested form may be a part): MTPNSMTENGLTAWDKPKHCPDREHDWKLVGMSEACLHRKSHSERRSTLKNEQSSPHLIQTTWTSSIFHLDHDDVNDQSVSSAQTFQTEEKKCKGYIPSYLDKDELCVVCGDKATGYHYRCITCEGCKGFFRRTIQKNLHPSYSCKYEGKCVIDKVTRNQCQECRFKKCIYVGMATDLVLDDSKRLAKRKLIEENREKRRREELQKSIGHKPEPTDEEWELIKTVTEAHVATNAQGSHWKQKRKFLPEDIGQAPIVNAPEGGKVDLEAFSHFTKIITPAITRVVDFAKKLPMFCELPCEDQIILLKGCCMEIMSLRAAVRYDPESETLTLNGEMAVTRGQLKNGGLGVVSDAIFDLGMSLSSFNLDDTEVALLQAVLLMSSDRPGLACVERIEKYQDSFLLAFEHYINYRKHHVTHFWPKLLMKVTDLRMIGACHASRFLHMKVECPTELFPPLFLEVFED
Data set [5] has as its target THR-α/RXR-α (Homo sapiens (Human), UniProt P10827). The experiment in a line: THR/RXR heterodimer assay (THR-α/RXR-α). The class given is biochemical. Conditions: RXR heterodimer assay; read-out: EC50 THRα-het.

Chain of THR-β/RXR-α (P10828 202-461): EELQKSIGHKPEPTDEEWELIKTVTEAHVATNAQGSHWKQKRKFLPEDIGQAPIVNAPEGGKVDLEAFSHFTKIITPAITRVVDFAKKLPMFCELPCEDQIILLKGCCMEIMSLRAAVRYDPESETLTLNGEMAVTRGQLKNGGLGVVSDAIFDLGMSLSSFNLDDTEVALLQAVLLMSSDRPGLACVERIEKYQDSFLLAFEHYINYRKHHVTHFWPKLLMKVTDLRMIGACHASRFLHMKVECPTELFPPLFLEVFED
Chain of THR-β/RXR-α (P19793 225-462 partner): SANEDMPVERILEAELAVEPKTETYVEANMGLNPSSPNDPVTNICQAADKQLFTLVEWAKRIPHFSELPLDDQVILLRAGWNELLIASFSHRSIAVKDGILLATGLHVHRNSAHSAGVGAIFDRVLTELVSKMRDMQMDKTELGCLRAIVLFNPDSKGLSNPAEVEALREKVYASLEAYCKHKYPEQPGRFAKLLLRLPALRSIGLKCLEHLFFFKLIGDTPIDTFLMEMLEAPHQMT
Chain of THR-β/RXR-α (Q15596 679-703 partner): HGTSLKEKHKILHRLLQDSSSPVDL
Chain of THR-α/RXR-α (P10827 other isoform, or with tags, fused parts or gaps): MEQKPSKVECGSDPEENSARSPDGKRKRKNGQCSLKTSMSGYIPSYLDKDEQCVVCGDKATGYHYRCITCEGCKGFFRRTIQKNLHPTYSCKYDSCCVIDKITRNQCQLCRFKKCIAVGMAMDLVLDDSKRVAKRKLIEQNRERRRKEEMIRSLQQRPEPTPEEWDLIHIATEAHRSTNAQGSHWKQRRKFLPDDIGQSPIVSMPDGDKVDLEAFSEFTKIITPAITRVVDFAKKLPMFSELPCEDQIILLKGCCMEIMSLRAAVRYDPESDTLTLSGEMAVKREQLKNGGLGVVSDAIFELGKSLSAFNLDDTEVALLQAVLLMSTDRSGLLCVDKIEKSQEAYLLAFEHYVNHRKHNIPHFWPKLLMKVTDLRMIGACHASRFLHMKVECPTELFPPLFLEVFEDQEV
Chain of THR-α/RXR-α (P19793 225-462 partner): as the sequence (P19793 225-462 partner) above

As to `CC1(n2c(=O)[nH]c3ccc(Oc4c(Cl)cc(-n5nc(C#N)c(=O)[nH]c5=O)cc4Cl)cc32)CC1` [Example 14, 2-(3,5-dichloro-4-((3-(1-methylcyclopropyl)-2-oxo-2,3-dihydro-1H-benzo[d]imidazol-5-yl)oxy)phenyl)-3,5-dioxo-2,3,4,5-tetrahydro-1,2,4-triazine-6-carbonitrile], in data set [1], the THRß-Selectivity came out at 12.0. Further, in data set [2] (IV infusion 1.09 mg/kg), the total exposure AUC(0-inf) was determined as 550 ± 19.6 ng·h/mL, the half-life is 1.51 ± 0.54 h, the clearance amounted to 30.3 ± 1.07 mL/min/kg and the Vd was determined as 1.28 ± 0.387 L/kg. For the same compound, the bioavailability in data set [2] (oral 3.18 mg/kg vs IV 1.09 mg/kg) was 11.5%. In addition, in data set [2] (oral 3.18 mg/kg), the area under the curve AUC(0-inf) was 190 ± 28.7 ng·h/mL, the AUC(0-t) worked out at 178 ± 25.5 ng·h/mL, the peak concentration (Cmax) was 31 ± 5.92 ng/mL and the “time post-dose at which Cmax was reached” value is 4.0 ± 2.0 h. For the same compound, the “tissue concentration in heart” value in data set [3] (IV infusion 2.16 mg/kg) is on record as “below the limit of detection”. For the same compound, in data set [3] (kidney/plasma, IV infusion 2.16 mg/kg, read-out: tissue/plasma ratio kidney/plasma), the Kp at 2 h was 6.25 ± 2.13. The concentration at 2 h in data set [3] (kidney, IV infusion 2.16 mg/kg, read-out: tissue concentration in kidney) was 94 ± 23.5 ng/g. Further, the Kp at 2 h in data set [3] (liver/plasma, IV infusion 2.16 mg/kg, read-out: tissue/plasma ratio liver/plasma) worked out at 29 ± 24.9. The concentration at 2 h in data set [3] (liver, IV infusion 2.16 mg/kg, read-out: tissue concentration in liver) was 413 ± 303 ng/g. In addition, the concentration at 2 h in data set [3] (plasma, IV infusion 2.16 mg/kg, read-out: plasma concentration) was 15.5 ± 3.7 ng/mL.

On to `Cn1c(=O)[nH]c2ccc(Oc3c(Cl)cc(NC(=O)c4noc(=O)[nH]4)cc3Cl)cc21` [Example 19, N-(3,5-dichloro-4-((3-methyl-2-oxo-2,3-dihydro-1H-benzo[d]imidazol-5-yl)oxy)phenyl)-5-oxo-4,5-dihydro-1,2,4-oxadiazole-3-carboxamide], for which the THRß-Selectivity is 5.3 in data set [1] and 14.1 in data set [4].

`COc1nc2ccc(Oc3c(Cl)cc(-n4nc(C#N)c(=O)[nH]c4=O)cc3Cl)cc2n1C1(C)CC1` [Example 12, 2-(3,5-dichloro-4-((2-methoxy-1-(1-methylcyclopropyl)-1H-benzo[d]imidazol-6-yl)oxy)phenyl)-3,5-dioxo-2,3,4,5-tetrahydro-1,2,4-triazine-6-carbonitrile] gave a THRß-Selectivity in data set [1] of 18.7. Moreover, in data set [2] (IV infusion 1.09 mg/kg), the AUC(0-inf) turned out to be 3780 ± 704 ng·h/mL, the half-life was 2.67 ± 0.53 h, the clearance came out at 4.51 ± 0.883 mL/min/kg and the Vd stood at 0.638 ± 0.218 L/kg. Besides, the bioavailability in data set [2] (oral 3.0 mg/kg vs IV 1.09 mg/kg) worked out at 95.2%. In data set [2] (oral 3.0 mg/kg), the AUC(0-inf) is 10800 ± 5630 ng·h/mL, the AUC(0-t) came to 10800 ± 5630 ng·h/mL, the Cmax worked out at 2020 ± 793 ng/mL and the “time post-dose at which Cmax was reached” value amounted to 3.33 ± 1.15 h. Further, in data set [3] (heart/plasma, IV infusion 2.0 mg/kg, read-out: tissue/plasma ratio heart/plasma), the Kp at 2 h turned out to be 1.65 ± 2.33. Further, in data set [3] (heart, IV infusion 2.0 mg/kg, read-out: tissue concentration in heart), the concentration at 2 h was found to be 995 ± 1430 ng/g. In addition, the Kp at 2 h in data set [3] (kidney/plasma, IV infusion 2.0 mg/kg, read-out: tissue/plasma ratio kidney/plasma) was found to be 1.01 ± 0.212. For the same compound, the concentration at 2 h in data set [3] (kidney, IV infusion 2.0 mg/kg, read-out: tissue concentration in kidney) stood at 558 ± 103 ng/g. In data set [3] (liver/plasma, IV infusion 2.0 mg/kg, read-out: tissue/plasma ratio liver/plasma), the Kp at 2 h worked out at 5.62 ± 1.09. Further, the concentration at 2 h in data set [3] (liver, IV infusion 2.0 mg/kg, mean±SD, read-out: tissue concentration in liver) came out at 3040 ± 350 ng/g. Also, the concentration at 2 h in data set [3] (plasma, IV infusion 2.0 mg/kg, read-out: plasma concentration) worked out at 569 ± 145 ng/mL.

With `COc1nc2ccc(Oc3c(Cl)cc(NC(=O)c4noc(=O)[nH]4)cc3Cl)cc2n1C` [Example 3, N-(3,5-dichloro-4-((2-methoxy-1-methyl-1H-benzo[d]imidazol-6-yl)oxy)phenyl)-5-oxo-4,5-dihydro-1,2,4-oxadiazole-3-carboxamide], the THRß-Selectivity in data set [1] is 9.7.

For the compound `COc1nc2ccc(Oc3c(Cl)cc(NC(=O)c4noc(=O)[nH]4)cc3Cl)cc2n1C1(C(F)(F)F)CC1` [Example 24], the THRß-Selectivity in data set [1] is recorded as 6.7. Moreover, the EC50 came out at 480 nM in data set [1] (read-out: EC50 THRß-het) and 3230 nM in data set [5].

In data set [1], `O=C(Nc1cc(Cl)c(Oc2ccc3[nH]c(=O)n(C4(C(F)F)CC4)c3c2)c(Cl)c1)c1noc(=O)[nH]1` [Example 17, N-(3,5-dichloro-4-((3-(1-(difluoromethyl)cyclopropyl)-2-oxo-2,3-dihydro-1H-benzo[d]imidazol-5-yl)oxy)phenyl)-5-oxo-4,5-dihydro-1,2,4-oxadiazole-3-carboxamide] registered a THRß-Selectivity of 10.1.

Take `CC(C)(C)n1c(=O)[nH]c2ccc(Oc3c(Cl)cc(-n4nc(C#N)c(=O)[nH]c4=O)cc3Cl)cc21` [Example 16, 2-(4-((3-(tert-butyl)-2-oxo-2,3-dihydro-1H-benzo[d]imidazol-5-yl)oxy)-3,5-dichlorophenyl)-3,5-dioxo-2,3,4,5-tetrahydro-1,2,4-triazine-6-carbonitrile]: the THRß-Selectivity in data set [1] worked out at 9.8.

Compound `COc1nc2ccc(Oc3c(Cl)cc(NC(=O)c4noc(=O)[nH]4)cc3Cl)cc2n1C1CC1` [Example 7, N-(3,5-dichloro-4-((1-cyclopropyl-2-methoxy-1H-benzo[d]imidazol-6-yl)oxy)phenyl)-5-oxo-4,5-dihydro-1,2,4-oxadiazole-3-carboxamide] returned a THRß-Selectivity in data set [1] of 21.2.

Broadly, the AUC(0-inf) is total exposure, with the tail of the curve extrapolated. Low readings indicate less exposure, high ones more exposure. Broadly, the half-life is the time in which the quantity being followed falls by half. The low end stands for fast loss, the high end for slow loss. By clearance is commonly meant a measure of how efficiently the substance is removed, as volume per time. A word on the bioavailability: it is dose-corrected exposure relative to a reference, in per cent. The AUC(0-t) is exposure summed from dosing to a finite time, without extrapolation to infinity. Lower therefore signals less exposure. The Cmax is the maximum level reached in the sampled fluid or tissue. The EC50 is the concentration needed to bring the measured effect to its halfway point.
